{
  "source": "ChEMBL document CHEMBL1127105",
  "about": "“Adenosine-2-monophosphate derivatives: Structural requirements as substrates for inositol monophosphatase” (Bioorg Med Chem Lett, 1993)",
  "key": {"[1]": {"target": "T1, Inositol monophosphatase 1 (Bos taurus) (UniProt P20456)", "T1 sequence (whole entry)": "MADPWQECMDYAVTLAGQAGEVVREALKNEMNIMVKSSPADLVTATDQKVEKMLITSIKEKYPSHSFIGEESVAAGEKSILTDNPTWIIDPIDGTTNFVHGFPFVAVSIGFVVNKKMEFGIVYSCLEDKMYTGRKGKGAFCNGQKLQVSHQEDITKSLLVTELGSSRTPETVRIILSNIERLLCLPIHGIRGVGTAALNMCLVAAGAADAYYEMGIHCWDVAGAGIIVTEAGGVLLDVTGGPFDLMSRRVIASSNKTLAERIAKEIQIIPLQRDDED", "assay": "Activity against the bovine inositol monophosphatase was determined by rate of release of inorganic phosphate at 1 mM substrate concentration, 1 mM of inositol-1-phosphate (1)."}, "[2]": {"target": "T2, Inositol monophosphatase 1 (Bos taurus, UniProt P20456)", "T2 sequence (P20456 whole entry)": "T1 sequence (whole entry)", "assay": "Tested for the inhibitory activity against bovine inositol monophosphatase by measuring concentration inhibiting the production of [14C]inositol from racemic inositol monophosphate (1) containing [14C]-1"}},
  "note": "pIC50: −log10 of the molar value.",
  "data": [
    {"smiles": "O=P(O)(O)O[C@H]1CC[C@H](CO)[C@H]1O", "values": [
      {"measurement": "Activity", "setting": "[1]", "result": "< 0.05"},
      {"measurement": "pIC50", "setting": "[2]", "result": 2.68}
    ]},
    {"smiles": "O=P(O)(O)[C@H]1CC[C@H](O)C[C@H]1O", "values": [
      {"measurement": "pIC50", "setting": "[2]", "result": 5.15}
    ]},
    {"smiles": "O=P(O)(O)O[C@H]1COC[C@H]1O", "values": [
      {"measurement": "Activity", "setting": "[1]", "result": 0.53},
      {"measurement": "pIC50", "setting": "[2]", "result": 2.44}
    ]},
    {"smiles": "Nc1ncnc2c1ncn2[C@@H]1O[C@H](CO)[C@@H](O)[C@H]1OP(=O)(O)O", "values": [
      {"measurement": "Activity", "setting": "[1]", "result": 0.48},
      {"measurement": "pIC50", "setting": "[2]", "result": 2.89}
    ]},
    {"smiles": "O=P(O)(O)O[C@H]1CC[C@@H](CO)[C@H]1O", "values": [
      {"measurement": "Activity", "setting": "[1]", "result": "< 0.05"},
      {"measurement": "pIC50", "setting": "[2]", "result": 3.51}
    ]},
    {"smiles": "O=P(O)(O)O[C@@H]1CO[C@@H](CO)[C@@H]1O", "values": [
      {"measurement": "Activity", "setting": "[1]", "result": 0.53},
      {"measurement": "pIC50", "setting": "[2]", "result": 2.74}
    ]},
    {"smiles": "O=P(O)(O)O[C@H]1CO[C@H](CO)[C@H]1O", "values": [
      {"measurement": "Activity", "setting": "[1]", "result": 0.65},
      {"measurement": "pIC50", "setting": "[2]", "result": 2.54}
    ]},
    {"smiles": "O=P(O)(O)O[C@H]1CCC[C@H]1O", "values": [
      {"measurement": "pIC50", "setting": "[2]", "result": 2.30}
    ]}
  ]
}
